Laboratory results as given in patent US7582660B2, “2-thio-substituted imidazole derivatives and their use in pharmaceutics” (c-a-i-r biosciences GmbH, priority 2002, dated 2009).

Tests used:
IL-1β [1] = experiment: In vitro test with human whole blood, LPS-stimulated IL-1β release (ELISA); type: cell-based; conditions: read-out: K50 (μM) Whole blood IL-1β
Description: (§1) They may be administered in one individual dose or in a plurality of doses. The activity spectrum of the compounds as inhibitors of cytokine release was examined using the test systems below, as described by C. Donat and S. Laufer in Arch. Pharm. Pharm. […] 1, 1-40. 2000.
(§2) In Vitro Test with Human Whole Blood
(§3) The reaction is stopped by placing the samples on ice, adding DPBS buffer and then centrifuging at 1000 g for 15 min. The amount of IL-1β and TNFα in the plasma supernatant is then determined by ELISA.

p 38 = p 38 (Homo sapiens, UniProt Q16539); experiment: Kinase assay (activated p38a, ATF2 substrate, ELISA readout); type: biochemical; conditions: ATF2, 100 μM ATP
Description: The reaction is stopped by placing the samples on ice, adding DPBS buffer and then centrifuging at 15 880 g for 12 min. The amount of IL-1β and TNFα in the plasma supernatant is then determined by ELISA. 2) Kinase Assay • At 37° C., microtiter plates were coated for one hour with 50 μl of ATF2 solution (20 μg/ml). The plates were washed three times with water, and 50 μl of kinase mixture (50 mM tris-HCl, 10 mM MgCl2, 10 mM β-glycerol phosphate, 10 μg/ml of BSA, 1 mM DTT, 100 μM ATP, 100 μM Na3VO4, 10 ng of activated p38a) with or without inhibitor were added into the wells, and the plates were incubated at 37° C. for 1 hour. The plates were washed three times and then incubated with phosphorus-ATF-2 antibody for one hour. The plates were once more washed three times, and goat-antirabbit IgG labeled with alkaline phosphatase was added at 37° C. for one hour (to fix antibody-phosphorylated protein/substrate complex). The plates were washed three times, and the alkaline phosphatase/substrate solution (3 mM 4-NPP, 50 mM NaHCO3, 50 mM MgCl2, 100 μl/well) was added at 37° C. for 1.5 hours. […] The IC50 values were calculated.

TNF-α [2] = experiment: In vitro test with PBMCs, LPS-stimulated TNFα release (ELISA); type: cell-based; conditions: human PBMCs, LPS 4 hours, read-out: IC50 (μM) PBMCA TNF-α
IL-1β [3] = experiment: In vitro test with PBMCs, LPS-stimulated IL-1β release (ELISA); type: cell-based; conditions: human PBMCs, LPS 4 hours, read-out: IC50 (μM) PBMCA IL-1β
TNF-α [4] = experiment: In vitro test with human whole blood, LPS-stimulated TNFα release (ELISA); type: cell-based; conditions: 1 μg/ml LPS 4 hours, read-out: K50 (μM) Whole blood TNF-α
Description: as §1, §2, §3

[5] = human whole blood, 1 μg/ml LPS 4 hours

Sequence of p 38 (Q16539 whole entry): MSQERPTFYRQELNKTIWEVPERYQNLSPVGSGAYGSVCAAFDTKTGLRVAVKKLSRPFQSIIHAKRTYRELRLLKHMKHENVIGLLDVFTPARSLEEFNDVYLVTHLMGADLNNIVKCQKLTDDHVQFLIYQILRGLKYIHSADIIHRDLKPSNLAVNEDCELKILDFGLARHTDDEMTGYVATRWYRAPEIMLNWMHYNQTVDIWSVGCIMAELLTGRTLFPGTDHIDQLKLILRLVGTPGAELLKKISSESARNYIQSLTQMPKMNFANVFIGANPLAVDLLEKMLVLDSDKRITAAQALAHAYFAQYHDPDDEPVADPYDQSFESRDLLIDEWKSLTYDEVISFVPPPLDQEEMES

SMILES	IC50 (p 38) [µM]	IC50 (TNF-α [2]; PBMC) [µM]	IC50 (IL-1β [3]; PBMC) [µM]	IC50 (IL-1β [1]; [5]) [µM]	IC50 (TNF-α [4]) [µM]	IC50 (TNF-α [2]) [µM]	IC50 (IL-1β [3]) [µM]	IC50 (IL-1β [1]; Homo sapiens, 4 h) [µM]
CSc1nc(-c2ccc(F)cc2)c(-c2ccnc(NC(C)c3ccccc3)c2)[nH]1 (racemic) [Compound 25m, (RS)-{4-[5-(4-Fluorophenyl)-2-methylsulfanyl-3H-imidazol-4-yl]pyridin-2-yl}-(1-phenylethyl)amine]	–	–	–	–	–	–	–	0.99
CSc1nc(-c2ccc(F)cc2)c(-c2ccnc(Cl)c2)[nH]1 [Compound 25a, 2-Chloro-4-[5-(4-fluorophenyl)-2-methylsulfanyl-3H-imidazol-4-yl]pyridine]	–	2.2	0.35	–	–	–	–	–
CSc1nc(-c2ccc(F)cc2)c(-c2ccnc(F)c2)[nH]1 [Compound 25b, 2-Fluoro-4-[5-(4-fluorophenyl)-2-methylsulfanyl-3H-imidazol-4-yl]pyridine]	3.8	2.8	0.3	–	–	–	–	–
CSc1nc(-c2ccc(F)cc2)c(-c2ccnc(OC(C)C)c2)[nH]1 [Compound 25c, 4-[5-(4-Fluorophenyl)-2-methylsulfanyl-3H-imidazol-4-yl]-2-isopropoxypyridin]	8.7	4.6	2.7	2.2	7.2	–	–	–
COc1cc(-c2[nH]c(SC)nc2-c2ccc(F)cc2)ccn1 [Compound 25d, 4-[5-(4-Fluorophenyl)-2-methylsulfanyl-3H-imidazol-4-yl]-2-methoxypyridine]	–	1.9	0.15	–	–	–	–	–
CSc1nc(-c2ccc(F)cc2)c(-c2cc[nH]c(=O)c2)[nH]1 [Compound 25e, 4-[5-(4-Fluorophenyl)-2-methylsulfanyl-3H-imidazol-4-yl]-1H-pyridin-2-one]	–	3.1	0.5	–	–	–	–	–
CSc1nc(-c2ccc(F)cc2)c(-c2ccnc(NCc3ccccc3)c2)[nH]1 [Compound 25f, Benzyl{4-[S-(4-fluorophenyl)-2-methylsulfanyl-3H-imidazol-4-yl]pyridin-2-yl}-amine]	0.65	–	–	–	–	0.63	0.108	–
COc1ccc(CNc2cc(-c3[nH]c(SC)nc3-c3ccc(F)cc3)ccn2)cc1 [Compound 25g, {4-[5-(4-Fluorophenyl)-2-methylsulfanyl-3H-imidazol-4-yl]pyridin-2-yl}-(4-methoxybenzyl)amine]	0.79	0.64	0.056	–	–	–	–	–
CSc1nc(-c2ccc(F)cc2)c(-c2ccnc(NCc3ccc(C)cc3)c2)[nH]1 [Compound 25h, {4-[5-(4-Fluorophenyl)-2-methylsulfanyl-3H-imidazol-4-yl]pyridin-2-yl}-(4-methylbenzyl)amine]	0.83	0.67	0.085	22.3	17.3	–	–	–
CSc1nc(-c2ccc(F)cc2)c(-c2ccnc(NCc3ccc(Cl)cc3)c2)[nH]1 [Compound 25i, (4-Chlorobenzyl)-{4-[5-(4-fluorophenyl)-2-methylsulfanyl-3H-imidazol-4-yl]-pyridin-2-yl}amine]	0.95	0.5	0.15	13.3	14.8	–	–	–
CSc1nc(-c2ccc(F)cc2)c(-c2ccnc(NCc3ccc(Cl)c(Cl)c3)c2)[nH]1 [Compound 25j, (3,4-Dichlorobenzyl)-{4-[5-(4-fluorophenyl)-2-methylsulfanyl-3H-imidazol4-yl]-pyridin-2-yl}amine]	0.7	0.72	0.23	–	–	–	–	–
CSc1nc(-c2ccc(F)cc2)c(-c2ccnc(Nc3ccccc3)c2)[nH]1 [Compound 25k, {4-[5-(4-Fluorophenyl)-2-methylsulfanyl-3H-imidazol-4-yl]pyridin-2-yl}-phenylamine]	0.13	0.34	0.03	–	–	–	–	–
CSc1nc(-c2ccc(F)cc2)c(-c2ccnc(NCCc3ccccc3)c2)[nH]1 [Compound 25l, {4-[5-(4-Fluorophenyl)-2-methylsulfanyl-3H-imidazol4-yl]pyridin-2-yl}-phenethylamine]	0.24	0.35	0.031	17.1	14.9	–	–	–

Now from value to compound, other results behind:

IC50 (p 38) [µM]	IC50 (TNF-α [2]; PBMC) [µM]	IC50 (IL-1β [3]; PBMC) [µM]	IC50 (IL-1β [1]; [5]) [µM]	IC50 (TNF-α [4]) [µM]	IC50 (TNF-α [2]) [µM]	IC50 (IL-1β [3]) [µM]	SMILES	IC50 (IL-1β [1]; Homo sapiens, 4 h) [µM]
0.38	2.7	0.045	–	–	–	–	CC(Nc1cc(-c2[nH]c(SCc3ccccc3)nc2-c2ccc(F)cc2)ccn1)c1ccccc1 (racemic) [Compound 26d, (RS)-{4-[2-Benzylsulfanyl-S-(4-fluorophenyl)-3H-imidazol-4-yl]pyridin-2-yl}-(1-phenylethyl)amine]	–
0.27	0.91	0.04	15.7	10	–	–	CC(Nc1cc(-c2[nH]c(SCc3ccc([S+](C)[O-])cc3)nc2-c2ccc(F)cc2)ccn1)c1ccccc1 (racemic) [Compound 27d, (RS)-{4-[5-(4-Fluorophenyl)-2-(4-methanesulfinylbenzylsulfanyl)-3H-imidazol-4-yl]pyridin-2-yl}-(1-phenylethyl)amine]	–
–	60	1.8	–	–	–	–	Fc1ccc(-c2nc(SCc3ccccc3)[nH]c2-c2ccnc(Cl)c2)cc1 [Compound 26a, 4-[2-Benzylsulfanyl-5-(4-fluorophenyl)-3H-imidazol-4-yl]-2-chloropyridine]	–
4.2	40.5	2.9	–	–	–	–	Fc1ccc(-c2nc(SCc3ccccc3)[nH]c2-c2ccnc(F)c2)cc1 [Compound 26b, 4-[2-Benzylsulfanyl-5-(4-fluorophenyl)-3H-imidazol-4-yl]-2-fluoropyridine]	–
1.42	3.2	0.2	–	–	–	–	Fc1ccc(-c2nc(SCc3ccccc3)[nH]c2-c2ccnc(NCc3ccccc3)c2)cc1 [Compound 26c, Benzyl-{4-[2-benzylsulfanyl-5-(4-fluorophenyl)-3H-imidazol-4-yl]pyridin-2-yl}-amine]	–
–	21	0.18	–	–	–	–	COc1ccc(CNc2cc(-c3[nH]c(SCc4ccccc4)nc3-c3ccc(F)cc3)ccn2)cc1 [Compound 26e, {4-[2-Benzylsulfanyl-5-(4-fluorophenyl)-3H-imidazol-4-yl]pyridin-2-yl}-(4-methoxybenzyl)amine]	–
–	12	2.1	–	–	–	–	C[S+]([O-])c1ccc(CSc2nc(-c3ccc(F)cc3)c(-c3ccnc(Cl)c3)[nH]2)cc1 (centres unmarked) [Compound 27a, 2-Chloro-4-[5-(4-fluorophenyl)-2-(4-methanesulfinylbenzylsulfanyl)-3H-imidazol-4-yl]pyridine]	–
9.3	6.9	2.45	–	–	–	–	C[S+]([O-])c1ccc(CSc2nc(-c3ccc(F)cc3)c(-c3ccnc(F)c3)[nH]2)cc1 (centres unmarked) [Compound 27b, 2-Fluoro-4-[5-(4-fluorophenyl)-2-(4-methanesulfinylbenzylsulfanyl)-3H-imidazol-4-yl]pyridine]	–
1.45	2	0.47	–	–	–	–	C[S+]([O-])c1ccc(CSc2nc(-c3ccc(F)cc3)c(-c3ccnc(NCc4ccccc4)c3)[nH]2)cc1 (centres unmarked) [Compound 27c, Benzyl-{4-[5-(4-fluorophenyl)-2-(4-methanesulfinylbenzylsulfanyl)-3H-imidazol-4-yl]pyridin-2-yl}amine]	–
